# Paper PMC8379256, “A xanthene derivative, DS20060511, attenuates glucose intolerance by inducing skeletal muscle-specific GLUT4 translocation in mice” (Communications Biology, 2021)
# Values joined by “and” are separate entries in the source; they are usually repeats but may differ in a detail not shown here. Equal entries are not always repeated.
# Legend:
# L6-GLUT4myc myotubes [1] = test: In vitro cellular 2-DG uptake in L6-GLUT4myc myotubes; type: cell-based, rat; conditions: for Ratio: 2-DG uptake normalized to vehicle; for A - background / A: dpm: 2-DG uptake
# Method: (§1) The L6-GLUT4myc rat myoblast cell line was obtained from Dr. Amira Klip and Dr. Philip Bilan, through a license granted by The Hospital for Sick Children, 555 University Avenue, Toronto, Ontario, Canada M5G 1 × 8; or purchased from Kerafast, Boston, MA (ESK202)[43]. The 3T3-L1-GLUT4myc fibroblast cell line was provided by Dr. Tomoyuki Yuasa, Tokushima University[44]. L6-GLUT4myc myoblasts were grown in MEMα (32571036, Thermo Fisher Scientific, Waltham, MA) supplemented with 10% FBS and 1% antibiotics, and then induced to differentiate into myotubes in MEMα supplemented with 2% FBS and 1% antibiotics for 5–8 days. 3T3-L1-GLUT4myc fibroblasts were induced to differentiate into adipocytes as described previously,[45] with minor modifications. Briefly, cells were grown to confluence in growth medium: DMEM (10569010, Thermo Fisher Scientific) supplemented with 10% FBS and 1% antibiotics, and then induced to differentiate into adipocytes in growth medium supplemented with 1 μM dexamethasone, 2 μM rosiglitazone, 0.5 mM isobutylmethylxanthine, and 10 μg mL^−1 insulin for 2 days. The adipocytes were then cultured in growth medium supplemented with 10 μg mL^−1 insulin for a few days before being used for the experiments.
# (§2) L6-GLUT4myc myotubes and 3T3-L1-GLUT4myc adipocytes were incubated in the wells of a 24-well plate containing serum-free medium for 3 h at 37 °C and then incubated in glucose-free medium for 30 min at 37 °C. The cells were treated with the indicated concentrations of DS20060511 or insulin for 30 min at 37 °C, followed by the addition of 1 mM 2-deoxy-D-glucose (2-DG) and 0.3 μCi mL^−1 [^3H]-2-DG for 10 min. 2-DG uptake was measured with a liquid scintillation counter (Tri-Carb 2810TR, PerkinElmer, Waltham, MA) and normalized to the level in the vehicle-treated group.
# [2] = system: 3T3-L1-GLUT4myc adipocytes; test: In vitro cellular 2-DG uptake in 3T3-L1-GLUT4myc adipocytes; type: cell-based; conditions: for Ratio: 2-DG uptake normalized to vehicle; for A - background / A: dpm: 2-DG uptake
# Method: as §1, §2
# L6-GLUT4myc myotubes [3] = test: Fluorescence immunostaining of cell surface GLUT4 and actin fibers in L6-GLUT4myc myotubes; type: cell-based, rat; conditions: 30 μM DS20060511 or 100 nM insulin; Fig. 4c
# Method: (§3) Arrowheads indicate the characteristic ruffled structure of the polymerized actin and actin-associated surface GLUT4. d GLUT4 translocation activity of 30 μM DS20060511 or 100 nM insulin in the presence of the actin polymerization inhibitor, Latrunculin B, at the indicated concentrations. Values shown are means ± SEM, n = 3. **P < 0.01 vs. 0 nM Latrunculin B by one-way ANOVA followed by Dunnett’s test. e Concentration-dependent insulin-stimulated GLUT4 translocation in L6-GLUT4myc myotubes with or without 30 μM DS20060511 (n = 3). f Concentration-dependent DS20060511-stimulated 2-DG uptake with 100 nM insulin in isolated muscles from C57BL/6 mice (n = 3). Values shown are means ± SEM. ***P < 0.001 by one-way ANOVA followed by Tukey’s test. g Blood glucose levels during ITT in STZ-treated C57BL/6 mice (n = 6–7). Vehicle or indicated dose of DS20060511 was given orally at the same time as 0.1 U kg^−1 insulin injection intraperitoneally. Values shown are means ± SEM. *P < 0.05 vs. vehicle by one-way ANOVA followed by Dunnett’s test. c Scale bar in all panels, 5 μm. Uncropped blots for a and b can be found in Supplementary Fig. 6.
# Differentiated L6-GLUT4myc myotubes were prepared in a collagen-coated four-well chamber slide. After serum starvation for 3 h, the cells were stimulated with insulin or DS20060511 for 15 min at 37 °C. Cells were rinsed with cold PBS(+), fixed with 4% paraformaldehyde for 30 min on ice and blocked with 1% BSA and 10% normal goat serum in PBS(+) for 30 min at room temperature. Surface GLUT4myc staining was carried out without cell membrane permeabilization. Cells were incubated with anti-c-Myc antibody for 30 min at room temperature, followed by treatment with 0.1% Triton-X. After blocking, the cells were incubated with Alexa 488-conjugated secondary antibody and Alexa 594-conjugated phalloidin for 30 min at room temperature. Fluorescence images were obtained with a Leica TSC-SP8 confocal microscope. Specimens were scanned along the z-axis and a single-composite image was generated by the maximal projection method using the LAS software (Leica Microsystems, Wetzlar, Germany).
# [4] = system: isolated skeletal muscles; test: 2-DG uptake with 100 nM insulin in isolated muscles from C57BL/6 mice; parameters: species or system mouse; conditions: for 2DOG Trn / IC 2DOG / Raio (2-DG uptake relative to untreated control): isolated muscles, individual muscles #1-3; for 2DOG Trn / IC 2DOG: 2DG 1 mM, incubation 10 min
# Method: as §3
# The soleus or EDL muscle was removed from anesthetized mice (isoflurane anesthesia) that had been denied access to food overnight, and incubated with oxygenated (95% O2/5% CO2) Krebs-Henseleit Bicarbonate (KHB) buffer (118.1 mM NaCl, 4.7 mM KCl, 1.1 mM KH2PO4, 1.2 mM MgSO4, 2.5 mM CaCl2, and 25 mM NaHCO3, pH7.4) in the presence of 11.1 mM glucose at 37 °C. The muscle specimens were then treated with the indicated concentrations of the compounds in KHB buffer containing 11.1 mM glucose and 8 mM mannitol for 10 min at 37 °C. Thereafter, the muscles were rinsed with KHB buffer containing 8 mM mannitol and the compounds for 5 min at 37 °C. Lastly, the muscles were treated with the compounds in KHB buffer containing 1 mM 2-DG (with 0.3 μCi mL^−1 [^3H]-2-DG) and 8 mM mannitol (with 0.03 μCi mL^−1 [^14C]-mannitol) for 10 min at 37 °C. After the muscle specimens were washed, they were lysed with 1 N NaOH and neutralized with 1 N HCl. The ^14C- and ^3H-specific activities were counted with a liquid scintillation counter. The specific uptake of 2-DG was calculated by subtracting the nonspecific uptake of mannitol from the total 2-DG uptake. To investigate the effects of muscle contraction, muscle contraction was induced by electrical stimulation with 5 Hz (1 ms pulse duration, 100 V) for 10 min (SEN-5201, Nihon Koden, Tokyo, Japan).
# [5] = DS20060511 1 μM + insulin 100 nM
# [6] = DS20060511 10 μM + insulin 100 nM
# [7] = insulin 100 nM alone (DS20060511 0 μM)
molecule,measurement,setting,value
COc1ccc2c(C)c(C(=O)O)ccc2c1C1C2=C(CC(C)(C)CC2=O)OC2=C1C(=O)CC(C)(C)C2 [DS20060511],Ratio,L6-GLUT4myc myotubes [1]; DS20060511 0.1 μM,1.12 and 1.13 and 1.11
same,Ratio,L6-GLUT4myc myotubes [1]; DS20060511 1 μM,1.53 and 1.44 and 1.45
same,Ratio,L6-GLUT4myc myotubes [1]; DS20060511 10 μM,1.59 and 1.82 and 1.79
same,A - background,L6-GLUT4myc myotubes [1]; DS20060511 0.1 μM,1376 dpm and 1354 dpm and 1361 dpm
same,A: dpm,L6-GLUT4myc myotubes [1]; DS20060511 0.1 μM,1481 dpm and 1459 dpm and 1466 dpm
same,A - background,L6-GLUT4myc myotubes [1]; DS20060511 1 μM,1752 dpm and 1767 dpm and 1863 dpm
same,A: dpm,L6-GLUT4myc myotubes [1]; DS20060511 1 μM,1857 dpm and 1872 dpm and 1968 dpm
same,A - background,L6-GLUT4myc myotubes [1]; DS20060511 10 μM,2208 dpm and 2181 dpm and 1933 dpm
same,A: dpm,L6-GLUT4myc myotubes [1]; DS20060511 10 μM,2313 dpm and 2286 dpm and 2038 dpm
same,2-DG uptake (in words),"L6-GLUT4myc myotubes [1]; L6-GLUT4myc myotubes, Fig. 1d",significantly increased 2-DG uptake in a concentration-dependent manner
same,Ratio,[2]; DS20060511 0.1 μM,1.50 and 1.09 and 1.18
same,Ratio,[2]; DS20060511 1 μM,1.43 and 1.24 and 1.47
same,Ratio,[2]; DS20060511 10 μM,1.53 and 1.62 and 1.75
same,A - background,[2]; DS20060511 0.1 μM,846 dpm and 912 dpm and 1164 dpm
same,A: dpm,[2]; DS20060511 0.1 μM,1342 dpm and 1408 dpm and 1660 dpm
same,A - background,[2]; DS20060511 1 μM,957 dpm and 1138 dpm and 1108 dpm
same,A: dpm,[2]; DS20060511 1 μM,1453 dpm and 1634 dpm and 1604 dpm
same,A - background,[2]; DS20060511 10 μM,1255 dpm and 1357 dpm and 1185 dpm
same,A: dpm,[2]; DS20060511 10 μM,1751 dpm and 1853 dpm and 1681 dpm
same,actin polymerization,L6-GLUT4myc myotubes [3],observed only following insulin treatment
same,staining of GLUT4 at the cell surface,L6-GLUT4myc myotubes [3],strong staining of GLUT4 at the cell surface
same,"2-DG uptake induced by insulin, concomitant DS20060511","[4]; 100 nM insulin, isolated skeletal muscles, Fig. 4f",additively increased
same,2DOG Trn,[4]; [5],935 nmol/ml and 93.5 µM/min and 1062 nmol/ml and 106.2 µM/min and 1054 nmol/ml and 105.4 µM/min
same,IC 2DOG,[4]; [5],559 nmol/g and 682 nmol/g and 640 nmol/g
same,Raio (2-DG uptake relative to untreated control),[4]; [5],2.70 and 3.07 and 3.04
same,2DOG Trn,[4]; [6],1281 nmol/ml and 128.1 µM/min and 1209 nmol/ml and 120.9 µM/min and 1137 nmol/ml and 113.7 µM/min
same,IC 2DOG,[4]; [6],656 nmol/g and 556 nmol/g and 565 nmol/g
"Insulin: Insulin (Humulin, Eli Lilly) in the in vivo experiments; Insulin solution human (I9278, Sigma–Aldrich) in the in vitro experiments",Ratio,L6-GLUT4myc myotubes [1]; Insulin 1 nM,1.26 and 1.31 and 1.36
same,Ratio,L6-GLUT4myc myotubes [1]; Insulin 10 nM,1.62 and 1.58 and 1.67
same,Ratio,L6-GLUT4myc myotubes [1]; Insulin 100 nM,1.81 and 1.94 and 2.02
same,A - background,L6-GLUT4myc myotubes [1]; Insulin 1 nM,1594 dpm and 1651 dpm and 1530 dpm
same,A: dpm,L6-GLUT4myc myotubes [1]; Insulin 1 nM,1699 dpm and 1756 dpm and 1635 dpm
same,A - background,L6-GLUT4myc myotubes [1]; Insulin 10 nM,1918 dpm and 2031 dpm and 1966 dpm
same,A: dpm,L6-GLUT4myc myotubes [1]; Insulin 10 nM,2023 dpm and 2136 dpm and 2071 dpm
same,A - background,L6-GLUT4myc myotubes [1]; Insulin 100 nM,2363 dpm and 2459 dpm and 2203 dpm
same,A: dpm,L6-GLUT4myc myotubes [1]; Insulin 100 nM,2468 dpm and 2564 dpm and 2308 dpm
same,Ratio,[2]; Insulin 1 nM,12.31 and 11.72 and 12.41
same,Ratio,[2]; Insulin 10 nM,13.43 and 13.26 and 13.52
same,Ratio,[2]; Insulin 100 nM,12.21 and 13.79 and 13.94
same,A - background,[2]; Insulin 1 nM,9081 dpm and 9610 dpm and 9537 dpm
same,A: dpm,[2]; Insulin 1 nM,9577 dpm and 10106 dpm and 10033 dpm
same,A - background,[2]; Insulin 10 nM,10270 dpm and 10470 dpm and 10402 dpm
same,A: dpm,[2]; Insulin 10 nM,10766 dpm and 10966 dpm and 10898 dpm
same,A - background,[2]; Insulin 100 nM,10682 dpm and 10795 dpm and 9457 dpm
same,A: dpm,[2]; Insulin 100 nM,11178 dpm and 11291 dpm and 9953 dpm
same,2-DG uptake (in words),"[2]; differentiated 3T3-L1-GLUT4myc adipocytes, Fig. 1e",increase 2-DG uptake
same,actin polymerization,L6-GLUT4myc myotubes [3],observed only following insulin treatment
same,staining of GLUT4 at the cell surface,L6-GLUT4myc myotubes [3],strong staining of GLUT4 at the cell surface
same,2DOG Trn,[4]; [7],573 nmol/ml and 57.3 µM/min and 622 nmol/ml and 62.2 µM/min and 629 nmol/ml and 62.9 µM/min
same,IC 2DOG,[4]; [7],376 nmol/g and 331 nmol/g and 410 nmol/g
same,Raio (2-DG uptake relative to untreated control),[4]; [7],1.65 and 1.79 and 1.82
